The supplement of paper PMC8149375

Columns and labels:
Conditions in all cases: treatment: drug alone; 5 days
[1] = test system: 769-P; assay: AUC of dose-response viability curve, drug alone (arbitrary (AUC of normalised viability)); higher = less growth inhibition
Procedure: (§1)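 Primary HTS: 8 RCC cell lines treated with 8 doses (up to 10 uM) of each library drug alone for 5 days; viability read by CellTiter-Glo and normalised to DMSO. GI50 was fitted with XLfit (4-parameter), AUC is the area under the dose-response curve, and minimum viability is the lowest fraction of DMSO viability across doses.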

[2] = test system: TK-10; assay: as above
Procedure: as §1

[3] = test system: CAKI-1; assay: as above
Procedure: as §1

[4] = test system: 786-O; assay: as above
Procedure: as §1

[5] = test system: SN12C; assay: as above
Procedure: as §1

[6] = test system: A498; assay: as above
Procedure: as §1

[7] = test system: UO-31; assay: as above
Procedure: as §1

[8] = test system: ACHN; assay: as above
Procedure: as §1

[9] = test system: 769-P; assay: GI50, drug alone; higher = less potent
Procedure: as §1

[10] = test system: TK-10; assay: GI50, drug alone; higher = less potent
Procedure: as §1

[11] = test system: CAKI-1; assay: GI50, drug alone; higher = less potent
Procedure: as §1

[12] = test system: 786-O; assay: GI50, drug alone; higher = less potent
Procedure: as §1

[13] = test system: SN12C; assay: GI50, drug alone; higher = less potent
Procedure: as §1

[14] = test system: A498; assay: GI50, drug alone; higher = less potent
Procedure: as §1

[15] = test system: UO-31; assay: GI50, drug alone; higher = less potent
Procedure: as §1

[16] = test system: ACHN; assay: GI50, drug alone; higher = less potent
Procedure: as §1

[17] = test system: 769-P; assay: minimum viability across doses, drug alone, relative to DMSO (fraction); higher = less growth inhibition
Procedure: as §1

[18] = test system: TK-10; assay: as above
Procedure: as §1

[19] = test system: CAKI-1; assay: as above
Procedure: as §1

[20] = test system: 786-O; assay: as above
Procedure: as §1

[21] = test system: SN12C; assay: as above
Procedure: as §1

[22] = test system: A498; assay: as above
Procedure: as §1

[23] = test system: UO-31; assay: as above
Procedure: as §1

[24] = test system: ACHN; assay: as above
Procedure: as §1

GI50, drug alone [12] [nM]	GI50, drug alone [16] [nM]	Compound	AUC of dose-response viability curve [1]	AUC of dose-response viability curve [2]	AUC of dose-response viability curve [3]	AUC of dose-response viability curve [4]	AUC of dose-response viability curve [5]	AUC of dose-response viability curve [6]	AUC of dose-response viability curve [7]	AUC of dose-response viability curve [8]	GI50, drug alone [9] [nM]	GI50, drug alone [10] [nM]	GI50, drug alone [11] [nM]	GI50, drug alone [13] [nM]	GI50, drug alone [14] [nM]	GI50, drug alone [15] [µM]	minimum viability across doses [17]	minimum viability across doses [18]	minimum viability across doses [19]	minimum viability across doses [20]	minimum viability across doses [21]	minimum viability across doses [22]	minimum viability across doses [23]	minimum viability across doses [24]
117	224	CCn1nnc2c(N3CCOCC3)nc(-c3ccc(NC(=O)Nc4ccc(C(=O)N5CCN(C)CC5)cc4)cc3)nc21 [PKI-402]	2.51	1.71	1.91	1.66	1.66	2.25	1.99	1.89	1140	179	241	99.1	165	0.162	0.102	0.0487	0.0473	0.00561	0.118	0.156	0.0165	0.0633
4860	2460	CCCS(=O)(=O)Nc1ccc(F)c(C(=O)c2c[nH]c3ncc(Cl)cc23)c1F [PLX-4720]	3.18	3.13	3.33	2.5	3.44	4.12	4.19	2.57	> 10000	> 10000	7550	> 10000	> 10000	> 10	0.817	0.574	0.278	0.335	0.875	0.885	0.944	0.197
1300	348	CC(C)n1nc(-c2cc3cc(O)ccc3[nH]2)c2c(N)ncnc21 [PP242]	2.56	2.12	2.12	2.02	2.23	2.93	3.42	2.07	1550	522	523	677	2910	4.1	0.0576	0.0788	0.0389	0.00205	0.0949	0.0519	0.00829	0.05

Compound	GI50, drug alone [12] [nM]	GI50, drug alone [16] [nM]	AUC of dose-response viability curve [1]	AUC of dose-response viability curve [2]	AUC of dose-response viability curve [3]	AUC of dose-response viability curve [4]	AUC of dose-response viability curve [5]	AUC of dose-response viability curve [6]	AUC of dose-response viability curve [7]	AUC of dose-response viability curve [8]	GI50, drug alone [9] [nM]	GI50, drug alone [10] [nM]	GI50, drug alone [11] [nM]	GI50, drug alone [13] [nM]	GI50, drug alone [14] [nM]	GI50, drug alone [15] [µM]	minimum viability across doses [17]	minimum viability across doses [18]	minimum viability across doses [19]	minimum viability across doses [20]	minimum viability across doses [21]	minimum viability across doses [22]	minimum viability across doses [23]	minimum viability across doses [24]
Cc1ccccc1-n1c(Cn2ncc3c(N)ncnc32)nc2cccc(C)c2c1=O [PIK-293]	> 10000	> 10000	3.49	3.07	3.46	2.42	3.16	3.9	4.72	3.53	> 10000	> 10000	> 10000	> 10000	> 10000	> 10	0.949	0.734	0.902	0.581	0.837	0.982	1.2	0.928
